The results in this text go back to ChEMBL document CHEMBL4507273 (2021).

Experiment [1] addresses Mitogen-activated protein kinase kinase kinase 13 (Homo sapiens) (UniProt O43283). Conditions: Compound concentration 1000.0 nM.
The target in experiment [2] is T1, 5-hydroxytryptamine receptor 1A (Homo sapiens) (UniProt P08908).
T1 sequence (whole entry): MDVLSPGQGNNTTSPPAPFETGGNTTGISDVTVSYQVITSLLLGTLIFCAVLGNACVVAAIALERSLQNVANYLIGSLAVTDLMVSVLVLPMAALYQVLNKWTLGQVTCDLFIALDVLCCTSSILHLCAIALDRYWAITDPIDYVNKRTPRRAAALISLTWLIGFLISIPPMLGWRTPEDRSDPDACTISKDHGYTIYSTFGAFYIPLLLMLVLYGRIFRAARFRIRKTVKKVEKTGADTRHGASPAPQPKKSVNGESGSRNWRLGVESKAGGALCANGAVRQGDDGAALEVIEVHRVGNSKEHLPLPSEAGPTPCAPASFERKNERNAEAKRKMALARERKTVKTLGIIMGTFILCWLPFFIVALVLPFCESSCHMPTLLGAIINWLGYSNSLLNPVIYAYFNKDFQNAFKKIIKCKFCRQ
Conditions: Compound concentration 10.0 uM.

The target in experiment [3] is Protein kinase C delta type (Homo sapiens) (UniProt Q05655). Conditions: Compound concentration 1000.0 nM.
The target in experiment [4] is Adenosine Transporter (Cavia porcellus) (UniProt H0V4R7+H0UUG1+H0V3Z5). Briefly: Inhibition of Transporter, Adenosine at compound concentration of 10.0 uM in the Eurofins-Panlabs radioligand binding assay (Eurofins_assay_202000). The format is protein assay. Set-up: ligand concentration 0.5 nM, non-specific ligand with concentration 5 uM Nitrobenzylthioinosine, incubation time 30 min, incubation temperature 25 C. Conditions: Compound concentration 10.0 uM.

The target of experiment [5] is SRSF protein kinase 2 (Homo sapiens) (UniProt P78362). Conditions: Compound concentration 1000.0 nM.
Experiment [6] concerns the target Cyclin-dependent kinase 1/cyclin B (Homo sapiens) (UniProt P06493+P14635+Q8WWL7+O95067). Nature of the experiment: CDK1/cyclinB(h) Eurofins Kinase panel. Format: protein-complex assay. The settings on record: Compound concentration 1.0 uM.
Experiment [7] has as its target Uncharacterized serine/threonine-protein kinase SBK3 (Homo sapiens) (UniProt P0C264). The settings on record: Compound concentration 1000.0 nM.
In experiment [8] the target is Receptor-interacting serine/threonine-protein kinase 1 (Homo sapiens) (UniProt Q13546). Conditions: Compound concentration 1000.0 nM.
Chain of Receptor-interacting serine/threonine-protein kinase 1 (Homo sapiens) (Q13546 whole entry): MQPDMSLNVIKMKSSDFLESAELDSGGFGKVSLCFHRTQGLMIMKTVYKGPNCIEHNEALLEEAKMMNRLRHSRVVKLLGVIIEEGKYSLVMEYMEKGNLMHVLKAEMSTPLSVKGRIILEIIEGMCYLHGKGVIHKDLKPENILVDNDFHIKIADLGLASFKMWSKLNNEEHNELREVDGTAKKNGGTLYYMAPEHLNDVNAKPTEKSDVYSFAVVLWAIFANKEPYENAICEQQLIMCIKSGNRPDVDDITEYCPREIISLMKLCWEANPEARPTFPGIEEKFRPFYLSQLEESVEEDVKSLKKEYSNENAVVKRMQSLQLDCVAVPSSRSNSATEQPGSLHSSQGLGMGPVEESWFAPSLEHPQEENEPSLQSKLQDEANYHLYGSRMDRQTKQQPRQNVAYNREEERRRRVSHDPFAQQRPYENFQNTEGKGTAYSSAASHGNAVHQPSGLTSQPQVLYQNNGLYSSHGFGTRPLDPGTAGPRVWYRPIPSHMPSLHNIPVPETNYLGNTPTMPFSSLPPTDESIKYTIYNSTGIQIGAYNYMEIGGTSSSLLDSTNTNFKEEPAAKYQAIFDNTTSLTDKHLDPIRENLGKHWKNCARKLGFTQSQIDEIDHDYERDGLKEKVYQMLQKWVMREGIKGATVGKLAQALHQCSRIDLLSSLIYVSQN
Experiment [9] has as its system Epidermal growth factor receptor (Homo sapiens), P00533 [G719S]. Conditions: Compound concentration 1000.0 nM.
Experiment [10] deals with T2, Alpha-1A adrenergic receptor (Homo sapiens, UniProt P35348).
T2 sequence (P35348 whole entry): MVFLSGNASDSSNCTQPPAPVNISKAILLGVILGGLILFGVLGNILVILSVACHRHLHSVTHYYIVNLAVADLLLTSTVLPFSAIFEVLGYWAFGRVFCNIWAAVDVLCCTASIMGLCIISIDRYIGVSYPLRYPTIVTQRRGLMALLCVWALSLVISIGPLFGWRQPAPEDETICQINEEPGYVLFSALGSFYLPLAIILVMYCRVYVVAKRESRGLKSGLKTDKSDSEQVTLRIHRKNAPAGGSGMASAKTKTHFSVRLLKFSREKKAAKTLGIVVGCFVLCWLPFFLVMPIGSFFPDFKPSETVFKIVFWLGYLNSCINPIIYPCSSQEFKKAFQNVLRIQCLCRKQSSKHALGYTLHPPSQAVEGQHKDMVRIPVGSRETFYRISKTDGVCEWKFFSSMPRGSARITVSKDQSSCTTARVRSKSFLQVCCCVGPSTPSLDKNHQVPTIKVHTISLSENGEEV
Nature of the experiment: GPCRScan assay: inhibition of Alpha1A. The arrangement: radioligand conc. used [nm] 0.2 - 1.0, parental cells stable HEK.

Experiment [11] addresses Receptor tyrosine-protein kinase erbB-2 (Homo sapiens) (UniProt P04626). The settings on record: Compound concentration 1000.0 nM.
Experiment [12] addresses Mitogen-activated protein kinase kinase kinase 7 (Homo sapiens) (UniProt O43318). Conditions: Compound concentration 1000.0 nM.
Experiment [13] has as its target Mast/stem cell growth factor receptor Kit (Homo sapiens) (UniProt P10721). Conditions: Compound concentration 1000.0 nM.
In experiment [14] the target is Serine/threonine-protein kinase Nek1 (Homo sapiens) (UniProt Q96PY6). Conditions: Compound concentration 1000.0 nM.
Chain of Serine/threonine-protein kinase Nek1 (Homo sapiens) (Q96PY6 whole entry): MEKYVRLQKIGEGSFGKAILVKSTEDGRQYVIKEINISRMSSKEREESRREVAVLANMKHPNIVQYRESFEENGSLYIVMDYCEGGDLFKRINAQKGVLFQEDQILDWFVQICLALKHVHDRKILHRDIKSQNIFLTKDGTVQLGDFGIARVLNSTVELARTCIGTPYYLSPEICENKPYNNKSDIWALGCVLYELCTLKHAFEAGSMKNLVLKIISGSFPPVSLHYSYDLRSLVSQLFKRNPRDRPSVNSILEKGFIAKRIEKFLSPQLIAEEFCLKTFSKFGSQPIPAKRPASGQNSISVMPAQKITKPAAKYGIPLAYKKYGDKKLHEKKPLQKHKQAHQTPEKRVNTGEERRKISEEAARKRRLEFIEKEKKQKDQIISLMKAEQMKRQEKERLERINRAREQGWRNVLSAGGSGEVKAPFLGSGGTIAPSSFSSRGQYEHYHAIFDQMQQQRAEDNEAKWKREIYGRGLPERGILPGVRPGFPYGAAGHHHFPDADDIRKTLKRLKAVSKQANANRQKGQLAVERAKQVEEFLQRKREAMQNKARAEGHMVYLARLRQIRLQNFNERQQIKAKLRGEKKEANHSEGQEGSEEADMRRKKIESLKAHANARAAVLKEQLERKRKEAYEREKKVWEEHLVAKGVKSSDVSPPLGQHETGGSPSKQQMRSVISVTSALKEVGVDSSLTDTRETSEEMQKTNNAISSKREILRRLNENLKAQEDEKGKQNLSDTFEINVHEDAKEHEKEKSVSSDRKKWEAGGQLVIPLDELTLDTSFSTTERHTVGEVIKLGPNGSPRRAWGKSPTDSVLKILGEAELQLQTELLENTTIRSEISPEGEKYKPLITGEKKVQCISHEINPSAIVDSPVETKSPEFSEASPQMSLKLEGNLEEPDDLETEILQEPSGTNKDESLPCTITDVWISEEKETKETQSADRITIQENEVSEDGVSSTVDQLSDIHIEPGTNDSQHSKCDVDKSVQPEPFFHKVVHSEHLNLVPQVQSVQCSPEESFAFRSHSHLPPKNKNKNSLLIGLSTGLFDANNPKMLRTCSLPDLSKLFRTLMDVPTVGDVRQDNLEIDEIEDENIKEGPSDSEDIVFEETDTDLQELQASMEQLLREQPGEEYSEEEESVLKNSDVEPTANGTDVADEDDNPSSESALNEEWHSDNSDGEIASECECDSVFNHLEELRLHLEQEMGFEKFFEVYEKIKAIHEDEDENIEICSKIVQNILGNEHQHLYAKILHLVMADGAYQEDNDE
In experiment [15] the test system is Mast/stem cell growth factor receptor Kit (Homo sapiens), P10721 [A829P]. Conditions: Compound concentration 1000.0 nM.
The target in experiment [16] is Maternal embryonic leucine zipper kinase (Homo sapiens) (UniProt Q14680). The settings on record: Compound concentration 1000.0 nM.
Experiment [17] concerns the target Serine/threonine-protein kinase VRK2 (Homo sapiens) (UniProt Q86Y07). Conditions: Compound concentration 1000.0 nM.
Experiment [18] has as its target Serine/threonine-protein kinase 32C (Homo sapiens) (UniProt Q86UX6). The settings on record: Compound concentration 1000.0 nM.
For experiment [19], the target named is T3, 5-hydroxytryptamine receptor 2C (Homo sapiens, UniProt P28335).
T3 sequence (P28335 whole entry): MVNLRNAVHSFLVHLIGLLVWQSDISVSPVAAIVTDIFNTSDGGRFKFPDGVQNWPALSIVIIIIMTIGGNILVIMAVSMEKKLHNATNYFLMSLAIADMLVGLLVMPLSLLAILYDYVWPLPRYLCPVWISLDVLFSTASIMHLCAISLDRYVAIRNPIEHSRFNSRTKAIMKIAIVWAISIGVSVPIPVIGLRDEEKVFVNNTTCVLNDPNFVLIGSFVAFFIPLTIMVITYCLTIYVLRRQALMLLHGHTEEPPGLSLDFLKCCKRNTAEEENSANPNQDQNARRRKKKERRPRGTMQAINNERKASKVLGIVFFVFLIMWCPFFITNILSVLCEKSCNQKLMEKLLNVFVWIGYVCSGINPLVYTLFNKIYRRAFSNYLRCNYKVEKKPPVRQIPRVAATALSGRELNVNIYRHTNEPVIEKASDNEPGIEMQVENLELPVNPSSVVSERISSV
Briefly: GPCRScan assay: inhibition of 5-HT2C. The arrangement: radioligand conc. used [nm] 1.0 – 2.5, parental cells HEK T.

Experiment [20] concerns the target Serine/threonine-protein kinase NLK (Homo sapiens) (UniProt Q9UBE8). Conditions: Compound concentration 1000.0 nM.
Experiment [21] addresses Tyrosine-protein kinase JAK3 (Homo sapiens) (UniProt P52333). Conditions: Compound concentration 1000.0 nM.
Experiment [22] deals with Platelet-derived growth factor receptor alpha (Homo sapiens) (UniProt P16234). Conditions: Compound concentration 1000.0 nM.
Experiment [23] addresses Ribosomal protein S6 kinase alpha-2 (Homo sapiens) (UniProt Q15349). The settings on record: Compound concentration 1000.0 nM.
The target of the next experiment is Histamine H4 receptor (Homo sapiens, UniProt Q9H3N8). Nature of the experiment: GPCRScan assay: inhibition of H4. The arrangement: radioligand conc. used [nm] 1.0 – 5.0, parental cells HEK T.

Chain of Tyrosine-protein kinase JAK3 (Homo sapiens) (P52333 whole entry): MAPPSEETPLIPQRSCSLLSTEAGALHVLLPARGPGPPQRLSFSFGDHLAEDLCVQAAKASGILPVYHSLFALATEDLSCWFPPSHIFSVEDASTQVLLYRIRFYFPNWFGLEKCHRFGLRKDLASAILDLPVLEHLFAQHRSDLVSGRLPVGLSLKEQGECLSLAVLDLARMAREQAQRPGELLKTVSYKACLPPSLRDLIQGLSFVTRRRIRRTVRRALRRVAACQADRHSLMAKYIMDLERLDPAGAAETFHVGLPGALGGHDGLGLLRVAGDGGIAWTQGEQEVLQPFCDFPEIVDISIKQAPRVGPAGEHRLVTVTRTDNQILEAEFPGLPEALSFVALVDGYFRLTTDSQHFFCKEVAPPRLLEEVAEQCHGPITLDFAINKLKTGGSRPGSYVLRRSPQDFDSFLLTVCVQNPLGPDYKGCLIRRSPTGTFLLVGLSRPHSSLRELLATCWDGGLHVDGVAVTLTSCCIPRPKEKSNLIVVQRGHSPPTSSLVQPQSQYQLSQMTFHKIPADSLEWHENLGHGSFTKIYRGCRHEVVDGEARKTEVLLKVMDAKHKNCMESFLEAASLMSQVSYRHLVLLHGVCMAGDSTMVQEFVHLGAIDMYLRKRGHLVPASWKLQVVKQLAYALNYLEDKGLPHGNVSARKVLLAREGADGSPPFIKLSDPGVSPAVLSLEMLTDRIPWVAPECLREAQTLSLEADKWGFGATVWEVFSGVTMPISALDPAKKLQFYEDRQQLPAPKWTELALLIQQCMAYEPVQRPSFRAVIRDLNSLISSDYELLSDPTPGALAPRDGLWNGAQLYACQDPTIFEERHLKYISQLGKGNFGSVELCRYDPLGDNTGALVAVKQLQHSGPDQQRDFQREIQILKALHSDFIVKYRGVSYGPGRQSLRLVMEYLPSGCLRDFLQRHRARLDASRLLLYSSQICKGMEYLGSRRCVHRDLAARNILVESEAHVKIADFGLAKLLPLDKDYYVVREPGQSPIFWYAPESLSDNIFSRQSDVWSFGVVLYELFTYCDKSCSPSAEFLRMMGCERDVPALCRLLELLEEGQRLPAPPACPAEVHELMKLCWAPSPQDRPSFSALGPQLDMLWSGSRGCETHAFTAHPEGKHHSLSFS
Chain of Uncharacterized serine/threonine-protein kinase SBK3 (Homo sapiens) (P0C264 whole entry): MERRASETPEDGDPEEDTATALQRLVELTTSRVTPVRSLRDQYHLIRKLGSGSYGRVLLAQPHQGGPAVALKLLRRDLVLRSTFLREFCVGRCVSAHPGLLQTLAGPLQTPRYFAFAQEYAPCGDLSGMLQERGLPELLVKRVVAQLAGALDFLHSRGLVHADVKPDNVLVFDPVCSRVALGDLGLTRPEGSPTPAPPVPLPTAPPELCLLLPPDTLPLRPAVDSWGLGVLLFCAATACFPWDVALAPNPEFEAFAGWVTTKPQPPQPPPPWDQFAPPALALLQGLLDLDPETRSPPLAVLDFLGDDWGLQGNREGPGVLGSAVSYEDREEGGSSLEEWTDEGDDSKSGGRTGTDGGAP
Chain of Mitogen-activated protein kinase kinase kinase 7 (Homo sapiens) (O43318 whole entry): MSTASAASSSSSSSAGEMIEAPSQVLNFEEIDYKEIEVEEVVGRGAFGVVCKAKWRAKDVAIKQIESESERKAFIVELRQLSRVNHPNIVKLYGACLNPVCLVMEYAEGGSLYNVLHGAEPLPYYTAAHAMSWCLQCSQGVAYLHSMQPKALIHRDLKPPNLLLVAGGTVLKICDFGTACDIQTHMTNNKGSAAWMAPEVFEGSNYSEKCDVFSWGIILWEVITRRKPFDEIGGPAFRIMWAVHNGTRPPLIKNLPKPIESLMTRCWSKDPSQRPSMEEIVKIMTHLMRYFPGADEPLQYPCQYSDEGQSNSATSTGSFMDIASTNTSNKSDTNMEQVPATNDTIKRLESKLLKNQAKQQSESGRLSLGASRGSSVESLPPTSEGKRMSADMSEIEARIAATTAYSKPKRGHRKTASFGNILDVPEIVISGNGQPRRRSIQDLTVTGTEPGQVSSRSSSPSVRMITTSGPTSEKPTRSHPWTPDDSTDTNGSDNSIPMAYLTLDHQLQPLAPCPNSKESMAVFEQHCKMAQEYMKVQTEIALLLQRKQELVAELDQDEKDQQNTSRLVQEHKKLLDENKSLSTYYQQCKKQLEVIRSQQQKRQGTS
Chain of Serine/threonine-protein kinase VRK2 (Homo sapiens) (Q86Y07 whole entry): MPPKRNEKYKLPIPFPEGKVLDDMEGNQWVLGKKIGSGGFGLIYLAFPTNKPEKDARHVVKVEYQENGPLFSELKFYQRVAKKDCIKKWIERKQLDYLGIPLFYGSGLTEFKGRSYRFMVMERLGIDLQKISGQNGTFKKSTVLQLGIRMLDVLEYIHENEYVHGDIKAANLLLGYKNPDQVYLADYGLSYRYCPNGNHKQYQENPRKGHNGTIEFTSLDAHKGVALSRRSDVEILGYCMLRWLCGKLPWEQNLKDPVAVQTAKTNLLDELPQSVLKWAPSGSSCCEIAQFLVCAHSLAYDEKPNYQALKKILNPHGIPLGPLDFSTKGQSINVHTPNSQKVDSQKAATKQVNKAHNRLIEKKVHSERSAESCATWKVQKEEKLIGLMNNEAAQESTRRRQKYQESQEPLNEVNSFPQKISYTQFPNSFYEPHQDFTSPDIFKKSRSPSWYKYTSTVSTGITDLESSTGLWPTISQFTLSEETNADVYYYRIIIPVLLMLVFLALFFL
Chain of Serine/threonine-protein kinase NLK (Homo sapiens) (Q9UBE8 whole entry): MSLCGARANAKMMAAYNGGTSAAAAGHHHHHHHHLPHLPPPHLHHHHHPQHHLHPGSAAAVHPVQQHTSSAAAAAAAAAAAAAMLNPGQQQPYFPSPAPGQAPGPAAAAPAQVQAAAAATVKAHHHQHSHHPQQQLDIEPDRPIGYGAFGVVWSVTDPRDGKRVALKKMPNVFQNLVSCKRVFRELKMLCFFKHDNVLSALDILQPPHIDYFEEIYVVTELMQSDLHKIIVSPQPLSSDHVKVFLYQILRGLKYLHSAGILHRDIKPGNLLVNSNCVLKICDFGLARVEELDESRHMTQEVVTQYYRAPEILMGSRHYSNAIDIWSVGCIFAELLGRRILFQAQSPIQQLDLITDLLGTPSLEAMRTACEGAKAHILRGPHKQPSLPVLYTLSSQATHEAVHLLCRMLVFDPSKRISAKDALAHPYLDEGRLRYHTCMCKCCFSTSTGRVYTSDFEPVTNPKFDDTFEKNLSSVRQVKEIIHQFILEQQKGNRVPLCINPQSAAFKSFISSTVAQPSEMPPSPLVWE

The term inhibition denotes the relative decrease from the control value, in per cent. As to `CNCc1ccccc1-c1csc([C@@H](C)Nc2nc(C)nc3cc(OC)c(OC)cc23)c1` [BAY-293], the residual activity was 80% in experiment [1]; 98% in [3]; 61% in [5]; 100% in experiment [7]; 97% in experiment [8]; 69% in [9]. The residual activity was 84% in experiment [11]; 70% in [12]; 100% in experiment [13]; 91% in [14]; 87% in [15]; 53% in experiment [16]. Also, the residual activity is 89% in experiment [17]; 60% in [18]; 84% in experiment [20]; 94% in experiment [21]; 84% in [22]; 100% in experiment [23]. In addition, the inhibition in [2] was 81%; in [4] it was 62%. The % residual kinase activity in experiment [6] is 87%. For the same molecule, the Ki in experiment [10] (read-out: Ki) was 0.428 µM; in experiment [19] (read-out: Ki), 3.4 µM; in [19] (read-out: pKi (converted)), 2.88 µM.
For `CNCc1ccccc1-c1csc([C@H](C)Nc2nc(C)nc3cc(OC)c(OC)cc23)c1` [BAY-294], the residual activity was 91% in [1]; 100% in experiment [3]; 52% in experiment [5]; 100% in experiment [7]; 100% in experiment [8]; 84% in experiment [9]. Besides, the residual activity was 100% in experiment [11]; 75% in experiment [12]; 100% in [13]; 100% in experiment [14]; 100% in experiment [15]; 74% in experiment [16]. In addition, the residual activity is 73% in [17]; 71% in experiment [18]; 100% in [20]; 99% in experiment [21]; 92% in experiment [22]; 100% in experiment [23]. The Ki on Histamine H4 receptor is 1.89 µM; in [10] (read-out: Ki), 0.454 µM; in experiment [10] (read-out: pKi (converted)), 0.437 µM; in experiment [19] (read-out: Ki), 0.706 µM; in experiment [19] (read-out: pKi (converted)), 0.692 µM.
